Reference: patent publication US11572341B2, “Biguanide compound and use thereof” (ImmunoMet Therapeutics Inc., priority 2014, dated 2023)
Like-named read-outs stand apart in the source and are kept apart here.

Assays:
HCT116 cells = test: Inhibitory effect against cancer cell proliferation (MTT); format: cell-based, human; details: HCT116, MTT, 48 hours, read-out: IC50 (uM) @ HCT116
Protocol: The formazane crystals thus formed were dissolved using dimethyl sulfoxide (DMSO) and absorbance of the solution was measured at 560 nm. After culturing for 48 hours, […] synthesized in Examples was indicated as cell viability (%) according to each treated concentration.

AMPKa [pT172] = test: AMPKa activation [pT172] in MCF7 cell; format: cell-based

IC50 (HCT116 cells; Homo sapiens, HCT-116) | Structure (SMILES) | AMPKa activation [pT172] (Unit/ml) @ MCF7 cell (AMPKa [pT172]; 5 uM) | AMPKa activation [pT172] (Unit/ml) @ MCF7 cell (AMPKa [pT172]; 10 uM) | AMPKa activation [pT172] (Unit/ml) @ MCF7 cell (AMPKa [pT172]; 50 uM) | IC50 (HCT116 cells)
2.5 µM | CC1CCN(C(=N)NC(=N)Nc2ccc(C(F)(F)F)c(F)c2)CC1.Cl [Example 57, N1-(4-methyl)piperidin-N5-(3-fluoro-4-trifluoromethyl)phenyl Biguanide Hydrochloride] | 6.7 Unit/ml | 12.1 Unit/ml | cell death | 
2.3 µM | CC1CCN(C(=N)NC(=N)Nc2ccc(Cl)c(C(F)(F)F)c2)CC1.Cl [Example 58, N1-(4-methyl)piperidin-N5-(3-trifluoromethyl-4-chloro)phenyl Biguanide Hydrochloride] | 2.5 Unit/ml | 5.0 Unit/ml | cell death | 
2.3 µM | CC1CCN(C(=N)NC(=N)Nc2ccc(OC(F)(F)F)c(F)c2)CC1.Cl [Example 59, N1-(4-methyl)piperidin-N5-(3-fluoro-4-trifluoromethoxy)phenyl Biguanide Hydrochloride] | 9.8 Unit/ml | 13.3 Unit/ml | cell death | 
15.4 µM | CC1CCN(C(=N)NC(=N)NCc2cccc(C(F)(F)F)c2)CC1.Cl [Example 60, N1-(4-methyl)piperidin-N5-(3-trifluoromethyl)benzyl Biguanide Hydrochloride] | 4.6 Unit/ml | 7.8 Unit/ml | 20.9 Unit/ml | 
12.6 µM | CC1CCN(C(=N)NC(=N)NCc2ccc(C(F)(F)F)cc2)CC1.Cl [Example 61, N1 (4-methyl)piperidin-N5-(4-trifluoromethyl)benzyl Biguanide Hydrochloride] | 6.4 Unit/ml | 11.8 Unit/ml | 12.3 Unit/ml | 
2.8 µM | CC1CC(C)CN(C(=N)NC(=N)Nc2ccc(OC(F)(F)F)cc2)C1.Cl (stereo not shown) [Example 62, N1-(3,5-dimethyl)piperidin-N5-(4-trifluoromethoxy)phenyl Biguanide Hydrochloride] | 8.5 Unit/ml | 26.6 Unit/ml | cell death | 
36.1 µM | CC1CC(C)CN(C(=N)NC(=N)Nc2ccc(F)cc2)C1.Cl (stereo not shown) [Example 64, N1-(3,5-dimethyl)piperidin-N5=(4-fluoro)phenyl Biguanide Hydrochloride] | 2.2 Unit/ml | 4.4 Unit/ml | 31.4 Unit/ml | 
2.5 µM | CC1CC(C)CN(C(=N)NC(=N)Nc2ccc(F)c(C(F)(F)F)c2)C1.Cl (stereo not shown) [Example 65, N1-(3,5-dimethyl)piperidin-N5-(3-trifluoromethyl-4-fluoro)phenyl Biguanide Hydrochloride] | 15.0 Unit/ml | 20.1 Unit/ml | cell death | 
> 100 µM | Cl.N=C(NC(=N)N1CC=CC1)Nc1cccnc1 [Example 66, N1-2,5-dihydro-1H-pyrrol-N5-pyridin-3-yl Biguanide Hydrochloride] | 3.3 Unit/ml | 3.7 Unit/ml | 4.1 Unit/ml | 
147 µM | Cl.N=C(NC(=N)N1CC=CC1)N1CC=CC1 [Example 67, N1-2,5-dihydro-1H-pyrrol-N5-2,5-dihydro-1H-pyrrole Biguanide Hydrochloride] | 3.2 Unit/ml | 2.9 Unit/ml | 4.8 Unit/ml | 
> 100 µM | Cl.N=C(NC(=N)N1CC=CCC1)N1CC=CCC1 [Example 68, N1-1,2,3,6-tetrahydropyridin-N5-1,2,3,6-tetrahydropyridine Biguanide Hydrochloride] | 4.2 Unit/ml | 4.4 Unit/ml | 4.4 Unit/ml | 
> 100 µM | CC1CCN(C(=N)NC(=N)Nc2ccc(CCN)cc2)CC1.Cl [Example 69, N1-(4-methyl)piperidin-N5-(4-aminoethyl)phenyl Biguanide Hydrochloride] | 5.6 Unit/ml | 4.7 Unit/ml | 5.3 Unit/ml | 
> 100 µM | CC(=O)c1ccc(NC(=N)NC(=N)N2CCCC2)cc1.Cl [Example 70, N1-pyrrolidin-N5-(4-acetyl)phenyl Biguanide Hydrochloride] | 3.5 Unit/ml | 4.0 Unit/ml | 5.4 Unit/ml | 
> 100 µM | Cl.N=C(NC(=N)N1CCCCC1)Nc1ccc(N2CCOCC2)cc1 [Example 71, N1-piperidin-N5-(4-morpholin-4-yl)phenyl Biguanide Hydrochloride] | 3.8 Unit/ml | 4.3 Unit/ml | 5.8 Unit/ml | 
> 100 µM | COc1ccc(NC(=N)NC(=N)N2CCCCC2)cc1.Cl [Example 73, N1-piperidin-N5-(4-methoxy)phenyl Biguanide Hydrochloride] | 3.9 Unit/ml | 4.5 Unit/ml | 9.1 Unit/ml | 
48.3 µM | CCCc1ccccc1NC(=N)NC(=N)N1CCCCC1.Cl [Example 74, N1-piperidin-N5-(2-propyl)phenyl Biguanide Hydrochloride] | 4.9 Unit/ml | 5.3 Unit/ml | 8.3 Unit/ml | 
 | Cl.N=C(NC(=N)N1CCCC1)Nc1ccccc1C(F)(F)F [Example 75, N1-pyrrolidin-N5-(2-trifluoromethyl)phenyl Biguanide Hydrochloride] | 3.5 Unit/ml | 3.6 Unit/ml | 5.3 Unit/ml | > 100 µM
42.1 µM | Cl.N=C(NC(=N)N1CCCC1)Nc1cc(C(F)(F)F)ccc1Cl [Example 76, N1-pyrrolidin-N5-(2-chloro-5-trifluoromethyl)phenyl Biguanide Hydrochloride] | 4.5 Unit/ml | 4.7 Unit/ml | 8.8 Unit/ml | 
50.6 µM | Cl.N=C(NC(=N)N1CCCC1)Nc1ccc(F)c(Cl)c1 [Example 77, N1-pyrrolidin-N5-(3-chloro-4-fluoro)phenyl Biguanide Hydrochloride] | 4.5 Unit/ml | 5.7 Unit/ml | 13.9 Unit/ml | 
58.3 µM | Cl.N=C(NC(=N)N1CCCC1)Nc1cccc(Cl)c1Cl [Example 78, N1-pyrrolidin-N5-(2,3-dichloro)phenyl Biguanide Hydrochloride] | 3.4 Unit/ml | 3.4 Unit/ml | 3.8 Unit/ml | 
7.9 µM | Cl.N=C(NC(=N)N1CCCC1)Nc1ccc(SC(F)(F)F)cc1 [Example 79, N1-pyrrolidin-N5-(4-trifluoromethylthio)phenyl Biguanide Hydrochloride] | 7.8 Unit/ml | 11.7 Unit/ml | cell death | 
105 µM | Cl.N=C(N)N/C(=N/CCc1ccccc1)Nc1ccccc1 [Example 94, N1-phenyl-N2-phenethyl Biguanide Hydrochloride] |  |  | 9.0 Unit/ml | 
14.1 µM | Cl.N=C(N)N/C(=N/c1ccc(Br)cc1)NCCc1ccccc1 [Example 95, N1-phenethvl-N2-(4-bromo)phenyl Biguanide Hydrochloride] | 4.9 Unit/ml | 6.8 Unit/ml | 23.6 Unit/ml | 
49.2 µM | Cl.N=C(N)N/C(=N/C1CCCCCC1)NCc1ccc(Cl)cc1 [Example 98, N1-(4-chloro)benzyl-N2-cycloheptyl Biguanide Hydrochloride] | 7.2 Unit/ml | 9.6 Unit/ml | 37.5 Unit/ml | 
 | Cl.N=C(NC(N)=NCCc1cccs1)N1CCCCC1 [Example 99, N1-piperidin-N2-(2-thiophen-2-yl)ethyl Biguanide Hydrochloride] | 4.0 Unit/ml | 2.9 Unit/ml | 3.6 Unit/ml | > 100 µM
> 100 µM | CC/N=C(\NCc1ccc2c(c1)OCO2)NC(=N)N.Cl [Example 100, N1-(benzo[d][1,3]dioxol-5-yl)methyl-N2-ethyl Biguanide Hydrochloride] | 7.1 Unit/ml | 9.0 Unit/ml | 8.0 Unit/ml | 
> 100 µM | CC/N=C(\NCCc1ccc2c(c1)OCO2)NC(=N)N.Cl [Example 101, N1-2-(benzo[d][1,3]dioxol-5-yl)ethyl-N2-ethyl Biguanide Hydrochloride] | 4.1 Unit/ml | 3.6 Unit/ml | 5.9 Unit/ml | 
